# According to US20140186263A1, “MALEIMIDE-FUNC[…] NANOPARTICLES” (THE ROYAL INSTITUTION FOR THE ADVANCEMENT OF …, priority 2011, published 2014):
# Test system: blood brain barrier (BBB); brain, cerebellum
# Experiment: Biodistribution of [18F]-AuNP in rats by small animal micro-PET
# Format: in vivo, SD (Sprague-Dawley) rats
# Conditions: healthy rats, intravenous injection, micro-PET brain scan
# Protocol: To evaluate the bio-distribution of the AuNPs, [^18F] SiFA-AuNP (12 MBq) were injected into healthy rats (n=3) and evaluated by micro-PET. Representative body and brain scan images of a micro-PET scan following intravenous injection of a solution of [^18F]-SiFA-AuNP are illustrated in FIG. 8. Radioactivity was found in the kidney, liver and spleen.
# The time-activity curves obtained from the PET images depicting the radioactivity uptake in the cerebellum and the brain (n=3), using bone radioactivity as a region of reference, are illustrated in FIG. 9 These curves illustrate that AuNPs start to accumulate in the cerebellum and brain at 25-120 min. Ex vivo biodistribution studies were also carried out to confirm the bio-distribution data of [^18F]-SiFA-AuNP in different organs 2 h following injection as obtained by micro-PET. The biodistribution data is illustrated in FIG. 10 and is expressed as the percentage of injected dose for each gram of tissue (% ID/g). […]
# Biodistribution of [^18F]-AuNP in Rats by small animal PET: SD (Sprague-Dawley) Rats for in vivo PET studies were housed in a 12 h light/dark cycle at 21° C. with access to food and water ad libitum. […] Respiration rate, heart rate and body temperature were monitored throughout the scan (Biopac sytems MP150, Goleta, Calif., USA). […] The PET images were analyzed using ASIPRO software (Concorde Microsystems). […]
smiles,measurement,value
"CC(C)(C)[Si](F)(c1ccc(S)cc1)C(C)(C)C [[^18F]-SiFA-SH, ^18F-labeled 4-(di-tert-butylfluorosilanyl)benzenethiol]",crossing of the blood brain barrier (BBB),does not cross the BBB
